# From patent publication US9775898B2, “Vaccine composition comprising an immunogenic protein and combination adjuvants for use in eliciting antigen-specific T-cell responses” (TheVax Genetics Vaccine Co., Ltd., priority 2015, dated 2017)
# Tests used:
# CD91 = CD91 (Homo sapiens, UniProt Q07954); conditions: read-out: binding affinity to CD91 (Kd); cited from earlier work
# [1] = tested on: E7 antigen specific immune response; assay: Immunogenicity analysis of different immunogenic composition (humoral and cell mediated); type: in vivo; conditions: mice
# Sequence of CD91 (Q07954 20-4544, species assumed): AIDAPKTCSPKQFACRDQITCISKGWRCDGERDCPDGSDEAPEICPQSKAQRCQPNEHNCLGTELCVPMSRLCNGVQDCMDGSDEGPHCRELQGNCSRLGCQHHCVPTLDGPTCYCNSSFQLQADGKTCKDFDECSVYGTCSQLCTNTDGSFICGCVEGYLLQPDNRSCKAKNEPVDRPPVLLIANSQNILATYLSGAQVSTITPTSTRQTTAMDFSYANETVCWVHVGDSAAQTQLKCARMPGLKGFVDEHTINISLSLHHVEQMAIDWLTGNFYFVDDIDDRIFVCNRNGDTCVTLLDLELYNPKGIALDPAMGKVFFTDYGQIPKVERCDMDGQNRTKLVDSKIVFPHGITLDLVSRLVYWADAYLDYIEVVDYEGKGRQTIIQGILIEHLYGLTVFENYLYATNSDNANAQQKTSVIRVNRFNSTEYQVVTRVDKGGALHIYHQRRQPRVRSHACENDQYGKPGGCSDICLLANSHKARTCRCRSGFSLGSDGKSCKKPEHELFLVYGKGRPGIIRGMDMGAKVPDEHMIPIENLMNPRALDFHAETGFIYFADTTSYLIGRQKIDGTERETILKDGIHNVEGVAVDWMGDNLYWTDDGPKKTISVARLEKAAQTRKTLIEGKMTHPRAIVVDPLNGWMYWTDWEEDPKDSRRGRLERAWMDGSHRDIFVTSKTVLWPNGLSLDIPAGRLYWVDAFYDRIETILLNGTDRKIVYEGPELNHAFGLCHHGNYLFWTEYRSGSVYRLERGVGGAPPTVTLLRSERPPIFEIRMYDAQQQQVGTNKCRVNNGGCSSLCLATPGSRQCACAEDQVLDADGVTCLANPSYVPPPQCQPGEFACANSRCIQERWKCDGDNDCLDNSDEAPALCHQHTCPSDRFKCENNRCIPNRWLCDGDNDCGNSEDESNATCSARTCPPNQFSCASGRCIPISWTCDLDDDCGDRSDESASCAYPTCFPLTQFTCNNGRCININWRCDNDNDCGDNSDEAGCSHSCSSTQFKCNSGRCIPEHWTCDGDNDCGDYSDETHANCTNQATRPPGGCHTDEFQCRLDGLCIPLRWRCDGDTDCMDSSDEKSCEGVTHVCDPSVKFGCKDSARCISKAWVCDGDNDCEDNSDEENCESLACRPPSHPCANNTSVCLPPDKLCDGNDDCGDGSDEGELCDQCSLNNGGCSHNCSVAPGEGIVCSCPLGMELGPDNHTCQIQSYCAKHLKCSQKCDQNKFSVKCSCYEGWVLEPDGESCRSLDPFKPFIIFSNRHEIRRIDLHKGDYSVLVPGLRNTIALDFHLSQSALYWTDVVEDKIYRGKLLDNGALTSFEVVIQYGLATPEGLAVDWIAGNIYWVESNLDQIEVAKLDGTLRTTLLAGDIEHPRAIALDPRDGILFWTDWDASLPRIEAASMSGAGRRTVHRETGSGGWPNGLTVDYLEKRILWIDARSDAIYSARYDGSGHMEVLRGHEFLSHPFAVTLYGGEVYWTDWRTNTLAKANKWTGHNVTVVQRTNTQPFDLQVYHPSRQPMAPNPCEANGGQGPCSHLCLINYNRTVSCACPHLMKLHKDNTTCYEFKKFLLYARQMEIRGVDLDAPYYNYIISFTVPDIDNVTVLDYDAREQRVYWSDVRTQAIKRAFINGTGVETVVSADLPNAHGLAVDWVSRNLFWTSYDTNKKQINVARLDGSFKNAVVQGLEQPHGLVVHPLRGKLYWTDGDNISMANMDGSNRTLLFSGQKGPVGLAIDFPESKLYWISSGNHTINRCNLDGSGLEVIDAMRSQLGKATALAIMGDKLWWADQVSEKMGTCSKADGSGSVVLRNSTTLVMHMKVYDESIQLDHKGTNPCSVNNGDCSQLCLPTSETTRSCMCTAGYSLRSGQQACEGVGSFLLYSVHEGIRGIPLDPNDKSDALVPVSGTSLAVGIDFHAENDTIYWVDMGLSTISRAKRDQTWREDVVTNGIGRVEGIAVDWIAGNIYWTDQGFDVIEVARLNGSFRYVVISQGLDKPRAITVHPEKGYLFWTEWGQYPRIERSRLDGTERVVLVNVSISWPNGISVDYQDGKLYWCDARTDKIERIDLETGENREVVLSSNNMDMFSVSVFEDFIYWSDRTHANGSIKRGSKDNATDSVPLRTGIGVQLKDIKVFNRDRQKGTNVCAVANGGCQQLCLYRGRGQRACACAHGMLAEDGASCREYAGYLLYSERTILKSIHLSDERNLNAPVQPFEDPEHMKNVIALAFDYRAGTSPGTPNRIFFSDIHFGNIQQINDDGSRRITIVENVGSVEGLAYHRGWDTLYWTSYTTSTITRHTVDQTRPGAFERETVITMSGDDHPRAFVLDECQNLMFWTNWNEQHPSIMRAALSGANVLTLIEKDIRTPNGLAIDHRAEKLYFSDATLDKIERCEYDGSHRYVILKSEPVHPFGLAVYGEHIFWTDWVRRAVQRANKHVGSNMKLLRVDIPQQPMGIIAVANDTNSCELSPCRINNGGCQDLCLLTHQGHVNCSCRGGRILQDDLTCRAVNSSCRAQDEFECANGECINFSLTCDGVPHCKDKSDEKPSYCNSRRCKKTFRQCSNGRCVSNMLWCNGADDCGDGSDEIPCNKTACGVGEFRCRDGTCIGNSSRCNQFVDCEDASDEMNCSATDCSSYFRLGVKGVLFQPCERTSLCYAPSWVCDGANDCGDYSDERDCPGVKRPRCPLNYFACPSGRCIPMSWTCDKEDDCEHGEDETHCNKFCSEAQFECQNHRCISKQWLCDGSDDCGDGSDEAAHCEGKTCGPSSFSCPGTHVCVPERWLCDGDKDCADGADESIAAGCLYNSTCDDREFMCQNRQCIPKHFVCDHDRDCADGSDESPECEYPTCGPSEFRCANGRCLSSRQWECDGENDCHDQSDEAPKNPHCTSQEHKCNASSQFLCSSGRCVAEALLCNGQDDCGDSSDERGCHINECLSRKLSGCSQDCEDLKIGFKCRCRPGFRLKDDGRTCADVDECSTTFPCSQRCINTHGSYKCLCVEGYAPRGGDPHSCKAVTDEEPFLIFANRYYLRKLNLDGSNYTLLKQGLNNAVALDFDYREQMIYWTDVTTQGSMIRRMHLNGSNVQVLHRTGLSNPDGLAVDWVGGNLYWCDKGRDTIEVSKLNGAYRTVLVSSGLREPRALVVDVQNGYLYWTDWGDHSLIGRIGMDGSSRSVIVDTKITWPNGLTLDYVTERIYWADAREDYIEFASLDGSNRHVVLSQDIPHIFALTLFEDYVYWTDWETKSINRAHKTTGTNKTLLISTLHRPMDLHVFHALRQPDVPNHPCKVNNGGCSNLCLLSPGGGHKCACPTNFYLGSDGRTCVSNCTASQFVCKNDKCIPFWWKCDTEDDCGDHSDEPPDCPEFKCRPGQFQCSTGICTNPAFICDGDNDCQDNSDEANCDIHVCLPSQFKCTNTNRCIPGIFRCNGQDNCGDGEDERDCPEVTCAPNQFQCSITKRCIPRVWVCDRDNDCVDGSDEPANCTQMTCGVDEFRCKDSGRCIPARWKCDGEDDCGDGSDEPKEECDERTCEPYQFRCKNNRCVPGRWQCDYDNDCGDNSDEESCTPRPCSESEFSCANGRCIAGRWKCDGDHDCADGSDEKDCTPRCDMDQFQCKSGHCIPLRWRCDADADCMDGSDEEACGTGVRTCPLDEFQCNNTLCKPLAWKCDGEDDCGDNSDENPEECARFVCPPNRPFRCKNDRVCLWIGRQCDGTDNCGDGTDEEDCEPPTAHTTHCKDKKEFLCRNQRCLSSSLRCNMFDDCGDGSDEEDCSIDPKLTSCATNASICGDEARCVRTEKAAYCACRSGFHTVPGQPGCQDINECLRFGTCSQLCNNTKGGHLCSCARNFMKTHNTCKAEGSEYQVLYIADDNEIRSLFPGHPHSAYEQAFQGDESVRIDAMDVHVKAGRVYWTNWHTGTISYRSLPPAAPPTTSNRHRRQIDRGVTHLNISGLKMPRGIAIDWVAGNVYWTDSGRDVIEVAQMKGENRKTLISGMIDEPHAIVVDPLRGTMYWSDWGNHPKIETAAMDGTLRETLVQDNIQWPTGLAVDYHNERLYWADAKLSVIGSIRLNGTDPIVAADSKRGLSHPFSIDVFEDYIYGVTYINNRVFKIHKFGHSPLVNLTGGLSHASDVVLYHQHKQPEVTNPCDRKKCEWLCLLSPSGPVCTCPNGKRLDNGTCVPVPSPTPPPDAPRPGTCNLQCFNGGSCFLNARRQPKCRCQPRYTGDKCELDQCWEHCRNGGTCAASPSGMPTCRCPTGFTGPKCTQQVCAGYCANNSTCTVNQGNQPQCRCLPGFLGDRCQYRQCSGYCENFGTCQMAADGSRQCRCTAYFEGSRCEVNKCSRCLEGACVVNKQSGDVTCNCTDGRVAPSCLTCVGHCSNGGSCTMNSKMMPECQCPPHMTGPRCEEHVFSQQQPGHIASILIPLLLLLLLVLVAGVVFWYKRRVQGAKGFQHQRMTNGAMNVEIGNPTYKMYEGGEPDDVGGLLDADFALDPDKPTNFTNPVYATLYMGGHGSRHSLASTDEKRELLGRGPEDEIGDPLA
substance,measurement,setting,value
RAP1: 39 kDa ER resident protein and molecular chaperone for LDL receptor-related protein,Kd,CD91,~3 nM
"E7 antigen: HPV16 E7 protein (full length), SEQ ID NO: 21, antigen itself only",E7 antigen specific cell mediated immune response,[1]; combined with GPI-0100 or QS-21,weak to strong
QS-21 [reference compound],adjuvant comparison for stimulating both humoral and cell mediated immune responses,"[1]; with E7 immunogenic proteins, compared with alum",better adjuvants
